Source: PMC9792171, “Design and synthesis of new thiazolidinone/uracil derivatives as antiproliferative agents targeting EGFR and/or BRAF^V600E” (Frontiers in Chemistry, 2022)

How the values were obtained:
BRAF^V600E = molecular target: T1, BRAF^V600E (Mus musculus, UniProt P28028, V585E); test: BRAF^V600E inhibitory assay (V600E mutant BRAF kinase assay); assay type: biochemical; conditions: read-out: BRAF^V600E inhibition IC50 ± SEM
T1 construct: Mouse full-length GST-tagged BRAF^V600E (7.5 ng, Invitrogen, PV3849); GST; purchased Invitrogen PV3849
T1 sequence (P28028 whole entry V585E): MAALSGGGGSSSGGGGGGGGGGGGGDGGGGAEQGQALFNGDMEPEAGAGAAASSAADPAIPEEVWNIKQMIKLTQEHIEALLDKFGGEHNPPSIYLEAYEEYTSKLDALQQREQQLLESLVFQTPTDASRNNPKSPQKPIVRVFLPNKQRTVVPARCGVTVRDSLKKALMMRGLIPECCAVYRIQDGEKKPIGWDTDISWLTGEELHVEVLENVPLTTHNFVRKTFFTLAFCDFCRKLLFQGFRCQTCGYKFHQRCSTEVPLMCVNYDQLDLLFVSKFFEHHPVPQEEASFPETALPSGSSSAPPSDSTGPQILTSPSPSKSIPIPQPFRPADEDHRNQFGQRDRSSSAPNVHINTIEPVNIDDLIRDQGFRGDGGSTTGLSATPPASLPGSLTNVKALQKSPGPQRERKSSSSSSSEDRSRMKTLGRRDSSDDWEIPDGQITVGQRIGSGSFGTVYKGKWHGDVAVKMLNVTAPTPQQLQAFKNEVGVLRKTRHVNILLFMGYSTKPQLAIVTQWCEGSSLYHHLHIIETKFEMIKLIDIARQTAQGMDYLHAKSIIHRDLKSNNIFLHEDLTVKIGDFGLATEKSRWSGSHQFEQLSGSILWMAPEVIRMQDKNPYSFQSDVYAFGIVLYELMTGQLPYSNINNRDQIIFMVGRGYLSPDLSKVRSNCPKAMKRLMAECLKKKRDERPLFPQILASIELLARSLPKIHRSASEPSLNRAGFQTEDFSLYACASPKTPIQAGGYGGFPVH
Experimental: Mouse full-length GST-tagged BRAF^V600E (7.5 ng, Invitrogen, PV3849) was pre-incubated with drug (1 µL) and assay dilution buffer (4 µL) for 60 min at 25 °C. In assay dilution buffer, a solution (5 µL) containing MgCl2 (30 mM), ATP (200 µM), recombinant human full length (200 ng) […] N-terminal His-tagged MEK1 (Invitrogen) was added to start the assay, subsequent to incubation for 25 min at 25 °C. The assay was stopped using 5X protein denaturing buffer (LDS) solution (5 µL). To further denature the protein, heat (70° C) was applied for 5 min. […] 10 µL of each reaction was loaded into the precast plates and electrophoresis was allowed to proceed. After completion of electrophoresis, the front part of the precast gel plate (holding hot ATP) was cut and afterwards cast-off. The dried gel was developed using a phosphor screen. […] To study the effect of compounds on cell-based pERK1/2 activity in cancer cells, commercially available ELISA kits (Invitrogen) were used according to manufacturer’s instructions.

[1] = Cell viability assay (MTT), MCF-10A; assay type: cell-based; conditions: human, MCF-10A mammary gland epithelial cells, MCF-10A cells, incubated 4 days
Experimental: To test the viability of new compounds, the human mammary gland epithelial (MCF-10A) cell line was used ([Youssif et al., 2019]; [Mahmoud et al., 2022]). MCF-10A cells were incubated with compounds 3a-f and 5a-l for 4 days before being tested for viability using the MTT assay.
MTT assay was carried out to study the effect of compounds on mammary epithelial cells (MCF-10A) (Youssif, B. G. M. et al., 2019; Mahmoud, M. A., et al., 2022). The medium in which cells were propagated contained Dulbecco's modified Eagle's medium (DMEM)/ Ham's F-12 medium (1:1) supplemented with epidermal growth factor (20 ng/mL), hydrocortisone (500 ng/mL), insulin (10 μg/mL), 2 mM glutamine and 10% foetal calf serum. After every 2-3 days, the cells were passaged using trypsin ethylenediamine tetra acetic acid (EDTA). The cells were seeded at a density of 10^4 cells mL^-1 in flat-bottomed culture plates containing 96 wells each. After 24 h, medium was removed from the plates and the compounds in (in 0.1% DMSO) were added (in 200 μL medium to yield a final concentration of 0.1% v/v) to the wells of plates. A single compound was designated with four wells followed by incubation of plates for 96h at 37°C. After incubation, medium was removed completely from the plates followed by addition of MTT (0.4 mg/mL in medium) to each well and subsequent incubation of plates for 3h. MTT (along with the medium) was removed and DMSO (150μL) was added to each well of the culture plates, followed by vortexing and subsequent measurement of absorbance (at 540 nm) using microplate reader. The data are shown as percentage inhibition of proliferation in comparison with controls containing 0.1% DMSO.

Row | SMILES | IC50 (BRAF^V600E) | viability at 4 days, 50 µM [1] | melting point
1 | COC(=O)/C=C1\S/C(=N\c2c[nH]c(=O)[nH]c2=O)N(Cc2ccccc2)C1=O [Compound 5j, (Z)-Methyl-2-((Z)-3-benzyl-2-((2,4-dioxo-1,2,3,4-tetrahydropyrimidin-5-yl)imino)-4-oxothiazolidin-5-ylidene)acetate] | 115 ± 12 nM | 89% | 306 to 308 °C
2 | COC(=O)/C=C1\S/C(=N\c2c[nH]c(=O)[nH]c2=O)N(c2ccc(C)cc2)C1=O [Compound 5h, (Z)-Methyl-2-((Z)-2-((2,4-dioxo-1,2,3,4-tetrahydropyrimidin-5-yl)imino)-4-oxo-3-(p-tolyl)-thiazolidin-5-ylidene)acetate] | 137 ± 12 nM | 92% | 308 to 310 °C
3 | CCOC(=O)/C=C1\S/C(=N\c2c[nH]c(=O)[nH]c2=O)N(c2cccc(OC)c2)C1=O [Compound 5c, (Z)-Ethyl-2-((Z)-2-((2,4-dioxo-1,2,3,4-tetrahydropyrimidin-5-yl)imino)-3-(3-methoxyphenyl)-4-oxo-thiazolidin-5-ylidene)acetate] | 107 ± 10 nM | 96% | 330 to 332 °C
4 | COc1cccc(NC(=S)Nc2c[nH]c(=O)[nH]c2=O)c1 [Compound 3c, 1-(2,4-Dioxo-1,2,3,4-tetrahydropyrimidin-5-yl)-3-(3-methoxyphenyl)thiourea] | 148 ± 12 nM | 89% | 350 to 352 °C
5 | CCOC(=O)/C=C1\S/C(=N\c2c[nH]c(=O)[nH]c2=O)N(c2ccc(C)cc2)C1=O [Compound 5b, (Z)-Ethyl-2-((Z)-2-((2,4-dioxo-1,2,3,4-tetrahydropyrimidin-5-yl)imino)-4-oxo-3-(p-tolyl)thiazolidin-5-ylidene)acetate] | 93 ± 8 nM | 92% | –
6 | COC(=O)/C=C1\S/C(=N\c2c[nH]c(=O)[nH]c2=O)N(c2cccc(OC)c2)C1=O [Compound 5i, (Z)-Methyl-2-((Z)-2-((2,4-dioxo-1,2,3,4-tetrahydropyrimidin-5-yl)imino)-3-(3-methoxyphenyl)-4-oxothiazolidin-5-ylidene)acetate] | 122 ± 12 nM | 89% | 322 to 324 °C
